For 102 molecules, cytotoxicity results are on record in ChEMBL document CHEMBL3507680, “University of Dundee, Gates Library screen for HepG2 cell viability”.

This series is described as follows: Human HepG2 cell viability assay in 384 well format. Further details: dose 125 nL, time 70.5 hour; concentration not given beside the values. The class given is toxicity, cell-based. The following applies: HepG2 cells, read-out: Inhibition.
Take `O=C1NCC2=C1C(c1ccccc1)Nc1ccccc1N2` (configuration not stated): the cytotoxicity at 70.5 h was -2.81%.
Under `O=C(O)Cn1ccc(=O)c2cc(Cl)ccc21` stands -16.7%; under `O=C(O)Cn1ccc(=O)c2ccccc21`, -14.9%; under `Nc1cccnc1N1CCC(c2ccccc2)CC1`, 25%.
As for `COC(=O)CCn1ccc(=O)c2cc(F)ccc21`, the cytotoxicity at 70.5 h is -8.87%.
Under `CC(C)NC(=O)CN1CCCNCC1` stands -0.253%.
On to `COCCn1ccc2ccc(C(=O)O)cc21`, for which the cytotoxicity at 70.5 h was -9.99%.
Under `CC(C)CCc1n[nH]c(C(=O)O)c1Cl` stands 16.9%; under `Nc1nc2c(c3c1C(=O)NC3=O)CCC2`, -14.7%.
For `O=C1NCCCc2c1oc1ccc(O)c(CN3CCOCC3)c21`, the cytotoxicity at 70.5 h worked out at 30.3%.
For `NC(=O)CN1CC[C@@]2(O)CCCC[C@H]2[C@@H]1c1ccc2c(c1)OCO2`, the cytotoxicity at 70.5 h is -2.64%.
Under `COc1ccc(C(=O)N2CC[C@@]3(O)CCCC[C@H]3C2)cc1OC` stands 5.36%; under `O=C(Cn1ccc2cc(Br)ccc21)NC[C@@H]1CCCN2CCCC[C@H]12`, 9.59%.
Under `COC(=O)CNC(=O)Cn1ccc2cccc(OC)c21` stands 7.12%; under `CCC(C)N1C(=O)c2ccc(C(=O)NCCc3c[nH]cn3)cc2C1=O` (configuration not stated), -2.09%; under `COc1cccc2ccn(CC(=O)NCC(C)C)c12`, 11.2%.
Under `CC(=O)c1cn(CC(=O)N[C@H](C(=O)O)C(C)C)c2ccccc12` stands -13.5%; under `CSCC[C@H](NC(=O)Cn1ccc2ccc(Cl)cc21)C(=O)O`, -16.7%.
In the case of `CC(=O)c1cn(CCC(=O)N[C@@H](CC(C)C)C(=O)O)c2ccccc12`, the cytotoxicity at 70.5 h is -7.76%.
Under `O=C1CC(c2ccc(O)cc2)c2c(c(C(=O)O)cn2-c2ccccc2)N1` (configuration not stated) stands -10.6%.
Under `COc1cccc(-c2nc(C)c(C(=O)N[C@@H](CCSC)C(=O)O)s2)c1` stands -21.7%; under `CC(C)CNC(=O)c1cn(C)c(=O)c2ccccc12`, 7.18%; under `Cn1c(C(=O)N2CC[C@@]3(O)CCCC[C@H]3C2)cc2ccccc21`, -3.98%.
Under `Cn1ccc2ccc(C(=O)N3CC[C@@]4(O)CCCC[C@H]4C3)cc21` stands 7.95%.
As for `Cn1ccc2cc(C(=O)N3CC[C@@]4(O)CCCC[C@H]4C3)ccc21`, the cytotoxicity at 70.5 h was -13.9%.
Regarding `Cn1ccc2ccc(C(=O)NC3CCOC(C)(C)C3)cc21` (configuration not stated), the cytotoxicity at 70.5 h is 8.55%.
Under `Cc1nn(-c2ncnc3[nH]cnc23)c2c1C(C(C)C)CC(=O)N2` (configuration not stated) stands -1.6%.
Take `COc1cc2nc(C)n(CC(=O)NCCO)c(=O)c2cc1OC`: the cytotoxicity at 70.5 h is -8.13%.
As to `Cn1c(CN2CCCCC2)cc(=O)c(O)c1CN1CCCCC1`, the cytotoxicity at 70.5 h came to 2.14%.
Under `COc1ccc(NC(=O)CCNc2ncccn2)cn1` stands -30.9%; under `Cc1nn(C)c(Cl)c1C1CCCN1Cc1nnc(C2CC2)o1` (configuration not stated), -5.62%.
For the molecule `COCCc1noc(CN2CCCC2c2c(C)nn(C)c2Cl)n1` (configuration not stated), the cytotoxicity at 70.5 h was -0.0583%.
Under `Cc1ccc(CN(C)C(=O)c2ccc(NC3CC3)nc2)o1` stands -13.2%.
Under `N#Cc1cccc(C(=O)N2CCN(c3ncccn3)CC2)c1` stands 14.3%; under `Cc1nccc(-c2cccc(NCC(=O)N3CCOCC3)c2)n1`, -4.16%.
Turning to `Cc1nc(C(C)C)sc1C(=O)NCCNc1ncccn1`, the cytotoxicity at 70.5 h is -10.9%.
Under `Cc1noc(NC(=O)c2cccc(Br)c2)n1` stands -0.644%; under `Cc1noc(NC(=O)CCNC(=O)c2ccc(Br)cc2)n1`, 14.6%.
Under `Cc1ccc(C(=O)Nc2nc(C)no2)cc1` stands -4.79%; under `Cc1noc(NC(=O)c2ccc(F)cc2)n1`, -3.99%.
As for `CCCc1nc(C)c(C(=O)NCCNc2ncccn2)s1`, the cytotoxicity at 70.5 h is -6.59%.
For the molecule `O=C(NCCn1cccn1)c1ccn(-c2cccc(F)c2)n1`, the cytotoxicity at 70.5 h was -11.4%.
For the molecule `COc1ccc(-n2ccc(C(=O)NCCn3ccnc3)n2)cc1`, the cytotoxicity at 70.5 h was -8.04%.
Under `COc1ccc(C(=O)N(C)Cc2c(C)noc2C)cn1` stands -4.2%.
Turning to `Cc1nc(C)c(C(=O)NCCNc2ncccn2)s1`, the cytotoxicity at 70.5 h is -5.75%.
Under `Cc1cc(C)c(CNC(=O)NCC(O)c2ccccc2F)c(=O)[nH]1` (configuration not stated) stands -2.12%.
With `Cc1cc(C)c(CNC(=O)N(C)Cc2cccc(F)c2)c(=O)[nH]1`, the cytotoxicity at 70.5 h is 0.933%.
Under `Cc1noc(C)c1CN(C)C(=O)c1ccc(O)nc1` stands -5.72%.
Under `COc1ccc(CNC(=O)NC(C)(C(=O)O)c2ccco2)cc1F` (configuration not stated) stands 16.9%; under `CC(NC(=O)NCc1cccc(F)c1)(C(=O)O)c1ccco1` (configuration not stated), -8.22%; under `COc1ccc(C(O)CNC(=O)NCc2c(C)cc(C)[nH]c2=O)cc1` (configuration not stated), -5.03%.
Under `CCOc1ccnc(N2CCN(C(=O)c3ccc(OC)cc3)CC2)n1` stands -12.5%; under `CCc1nnsc1C(=O)N1CCCC(n2ccnc2C(C)C)C1` (configuration not stated), -5.12%.
Regarding `Cc1ccc(CC(=O)N2CCCC(n3ccnc3C(C)C)C2)cn1` (configuration not stated), the cytotoxicity at 70.5 h is -7.44%.
Under `Cc1cc(CN2CCCC2c2c(C)nn(C)c2Cl)on1` (configuration not stated) stands 0.0053%; under `CC(NC(=O)NCc1ccccc1F)(C(=O)O)c1ccco1` (configuration not stated), -2.87%.
Under `CC(NC(=O)CSCC#N)c1ccc(F)cc1` (configuration not stated) stands 10.1%; under `Cc1nccn1-c1cc(CNC(=O)CC2CCCO2)ccn1` (configuration not stated), 16.3%; under `O=C(NCc1ccccc1Cn1cncn1)C1CCCC1`, -3.85%.
Under `CN(Cc1cccc(O)c1)C(=O)Nc1cccnc1N1CCCC1` stands 16.2%; under `CC(NC(=O)CSCC#N)c1ccc(Cl)cc1` (configuration not stated), -4.42%.
As to `Cc1ccoc1C(=O)NC1CCN(CC(=O)N(C)c2ccccc2)CC1`, the cytotoxicity at 70.5 h came out at 18%.
Under `Cc1ccc(C(=O)NC2CCN(CC(=O)N(C)c3ccccc3)CC2)o1` stands -4.99%; under `CN(C(=O)CN1CCC(NC(=O)c2cccs2)CC1)c1ccccc1`, -6.85%.
With `Cc1cccc(OCCN2CCC(c3ccnn3CCO)CC2)c1`, the cytotoxicity at 70.5 h is -7.3%.
As to `OCCn1nccc1C1CCN(CCOc2ccccc2)CC1`, the cytotoxicity at 70.5 h came out at 8.03%.
Under `CCc1nc(C(=O)N2CCCCC2)nn1-c1ccccc1Cl` stands -6.89%; under `COc1c(CNCc2ccc3c(c2)OCO3)c(C(C)C)nn1C`, 18.3%.
Under `CC(C)c1nn(C)c(N2CCOCC2)c1CNC(C)c1ccco1` (configuration not stated) stands -2.73%; under `CC(C)c1nn(C)c(N(C)C)c1CNCc1ccc(CO)c(F)c1`, 1.57%.
In the case of `Cc1nccn1-c1cc(CNC(=O)CCS(=O)(=O)C2CCCC2)ccn1`, the cytotoxicity at 70.5 h was determined as 10.7%.
Under `CN(C)c1ccc(C(=O)N2CCCC(n3cccn3)C2)nn1` (configuration not stated) stands -4.36%; under `CCc1nc(C(=O)N2CCOCC2)nn1-c1ccccc1Cl`, -3.34%.
Under `O=C(c1ccc(N2CCCC2)nn1)N1CCCC(n2ccnc2)C1` (configuration not stated) stands -5.71%; under `Cc1nc(C)n(CC2CN(CCOc3cccc(C#N)c3)CCO2)n1` (configuration not stated), -6.4%; under `Cc1cc(C(=O)N2CCOC(c3nc(C(C)C)n[nH]3)C2)c(C)s1` (configuration not stated), -4.17%.
Under `CN(Cc1ccc(F)cc1)C(=O)Nc1cccnc1N1CCCC1` stands -6.22%.
In the case of `CC(C)c1n[nH]c(C2CN(C(=O)c3ncoc3C(C)C)CCO2)n1` (configuration not stated), the cytotoxicity at 70.5 h is -2.71%.
In the case of `CC(Cn1cccn1)NCCCc1nc(-c2cccs2)no1` (configuration not stated), the cytotoxicity at 70.5 h is 1.95%.
Take `CC1CCCCN1CCNC(=O)c1scnc1Cl` (configuration not stated): the cytotoxicity at 70.5 h was -12.6%.
As to `CC(C)c1noc(C(C)N2CCN(Cc3cccnc3)CC2)n1` (configuration not stated), the cytotoxicity at 70.5 h is -5.62%.
Take `CCC(O)CN1CCN(C(=O)c2cnc3n[nH]c(C)c3c2)CC1` (configuration not stated): the cytotoxicity at 70.5 h was -7.48%.
Turning to `Cc1nc(C)n(CC2CN(Cc3ccc4c(c3)OCCO4)CCO2)n1` (configuration not stated), the cytotoxicity at 70.5 h is -14.3%.
Under `CCn1nc2c(cc1=O)CN(Cc1nc(C)c(C)o1)CC2` stands -15.3%.
Under `Cc1ncc2c(n1)CN(Cc1nc(-c3ccsc3)no1)CC2` stands -21.5%; under `CC(c1nc(C(C)(C)C)no1)N1CCN(Cc2ccco2)CC1` (configuration not stated), -15%; under `Cc1cnc2c(S(=O)(=O)NCC3CC3)cccc2c1`, -1.56%.
Under `O=C(NCc1ccc(Cl)s1)NCc1nnc2n1CCCCC2` stands -14.9%; under `CC1CCN(CCNC(=O)c2scnc2Cl)CC1`, 18.5%; under `COc1ccnc(N2CCN(CC(=O)N3CCC(C)CC3)CC2)n1`, -13.2%.
With `COCCN(CCOC)C(=O)Nc1cc(C(F)(F)F)c[nH]c1=O`, the cytotoxicity at 70.5 h was -15.1%.
Under `COc1ccnc(N2CCN(CC(=O)N3CCOC(C)C3)CC2)n1` (configuration not stated) stands -8.38%; under `Cc1nc2ccnn2c(C)c1CCC(=O)N1CCN2CCCCC2C1` (configuration not stated), -9.21%; under `Cc1cc(C)n(C2CCCN(C(=O)c3csc(C4CC4)n3)C2)n1` (configuration not stated), -11%.
As for `CC(=O)Nc1nc(C(=O)N2CCCC(n3ccnc3C)C2)cs1` (configuration not stated), the cytotoxicity at 70.5 h was -14.1%.
As for `CCc1ncc2c(n1)CN(Cc1nc(-c3cccnc3)no1)CC2`, the cytotoxicity at 70.5 h is -6.75%.
As to `CC(C)n1nc2c(cc1=O)CN(Cc1nc3ccccc3o1)CC2`, the cytotoxicity at 70.5 h amounted to 10.1%.
Regarding `O=C(c1cc[nH]n1)N1CCCC(c2cc(C(F)(F)F)[nH]n2)C1` (configuration not stated), the cytotoxicity at 70.5 h is -17.8%.
Under `O=C(c1ccco1)N1CCCC(c2cc(C(F)(F)F)[nH]n2)C1` (configuration not stated) stands -7.38%.
Under `Cc1cc(C2CCCN(C(=O)c3ccc(Cl)o3)C2)n[nH]1` (configuration not stated) stands -8.12%; under `Cn1ccnc1Sc1ccc(N)cn1`, 0.97%.
As to `CC(C)c1nn(C)c(N(C)C)c1CNC(C)c1ccc2c(c1)OCO2` (configuration not stated), the cytotoxicity at 70.5 h is 20%.
